The test system of test [1] is NP cells. In words: iPTH in IFT88-/- and wild-type mice: immunostaining of pSmad2/3, CCN2, ACAN. It is filed as in vivo, mouse. The procedure:
The 11 month-old PTH1R^+/+ and PTH1R^−/− male mice were randomized into four groups: PTH1R^+/++PTH (1-34), PTH1R^+/++Vehicle, PTH1R^−/−+PTH (1-34) and PTH1R^−/−+Vehicle groups (n=8 per group). The 11 month-olds IFT88^+/+ and IFT88^−/− male mice were randomized into four groups: IFT88^+/++PTH (1-34), IFT88^+/++Vehicle, IFT88^−/−+PTH (1-34) and IFT88^−/−+Vehicle groups (n=8 per group). Mice were subcutaneously injected with either PTH (1-34) or vehicle (1 mM acetic acid in phosphate buffered saline (PBS) with equivalent volume of PTH) daily, 5 days per week, and all mice were sacrificed 4 weeks after treatment with PTH (1-34)/vehicle.
For immunocytochemical staining, we incubated GFP labeled NP cells co-stained with primary antibody to rabbit PTH1R PRB-635P (Covance, 1:100) for 1 h and subsequently stained with secondary antibodies conjugated with fluorescence at room temperature. At the time of euthanasia, we dissected and fixed the lumbar vertebral spine in 10% buffered formalin for 48 h, decalcified them in 10% EDTA (pH 7.4) for 14-21 days and embedded them in paraffin or optimal cutting temperature (OCT) compound (Sakura Finetek). Fourmicrometer-thick coronal-oriented sections of the L1-L6 spine were processed for safranin O and fast green staining. Sections for immunostaining was performed using a standard protocol and incubated with primary antibodies to rabbit ACAN (Abcam, 1:100), CCN2 (Abcam, 1:100), integrin β8 (Abcam, 1:200), pCREB (Abcam, 1:100) and PTH1R PRB-635P (Covance, 1:100), mouse pSmad2/3 (Santa Cruz, 1:100), integrin αvβ6 (Millipore, 1:100), integrin αvβ3 (Bioss, 1:100,), integrin αvβ5 (Bioss, 1:100) at 4° C. overnight. For immunohistochemical staining, a horse radish peroxidase-streptavidin detection system (Dako) was subsequently used to detect the immunoactivity, followed by counterstaining with hematoxylin (Sigma-Aldrich). For immunofluorescent assay, the slides were incubated with secondary antibodies conjugated with fluorescence at room temperature for 1 h while avoiding light. We used isotype-matched controls, such as polyclonal rabbit IgG (R&D Systems, AB-105-C) under the same concentrations and conditions as negative controls. We micro photographed sections to perform histomorphometric measurements on the entire area of the L3-L4 of the spine (Olympus DP71).
Quantitative histomorphometric analysis was conducted in a blinded fashion with Image-Pro Plus Software version 6.0 (Media Cybernetics Inc). IVD histological score were obtained as previously described67. Five randomly selected sections per mice in each group at L3-L4 level were chosen for quantitative histomorphometric analysis. The percentage of pSmad2/3 and pCREB positive cells was obtained by counting the number of positive staining cells to the number of total cells in the NP region. The percentage area of CCN2 and ACAN positive staining was calculated by measuring the positive area to the whole area of the L3-L4 in each group.

For the next test, the system named is 18-month-old mice. In words: iPTH in aged mice: in vivo micro-MRI of lumbar IVDs. Also on record: species or system mouse. The conditions noted are these: iPTH injection. The procedure: In vivo Spinal IVD imaging was conducted with a horizontal 30-cm-bore 9.4T Bruker Biospec preclinical scanner equipped with custom-built, single-turn volume coil positioned orthogonal to the BO magnetic field. Anesthetization of mice was initiated with 4% isoflurane and maintained with a 2% isoflurane and oxygen mixture. Mice were placed supine on a tray and taped to minimize the motion artifacts. We acquired T2-weighted images using a relaxation enhancement (RARE) sequence with the following parameter: an echo time/repetition time (TE/TR) of 15.17 ms/3,000 ms, 35 slices at thickness of 0.35 mm, field of view (FOV) of 1.75 cm×1.75 cm and matrix size of 256×128. All T2-weighted images were processed to a final matrix size of 256×256 with an isotropic resolution of 0.068 mm pixel-1. For quantification of signal intensity as an indicator of disc tissue hydration, the region of interest at L3-L4 level in each group was selected and measured using Image-Pro Plus Software version 6.

Test [2] concerns NP cells. Kind of test: Western blot of pCREB in NP cells of IFT88-/- or IFT88+/+ mice. The class given is cell-based, mouse. The procedure:
Green fluorescent protein (GFP) labeled NP cells of notochordal origin were isolated from 15-day old Noto^Cre/+::ROSA26-lacZ^flox/flox male mice as previously described. The NP cells from 15-day old PTH1R^+/+ and PTH1R^−/−, IFT88^+/+ and IFT88^−/− male mice. Briefly, the cells were isolated from the NP region of IVDs in the spinal column from mid thoracic to lower lumbar region and digested initially with TrypLE Express (Gibco) for 30 minutes on shaker, followed by 0.25 mg/ml Collagense-P (Roche) for another […] at 37° C. The digested cells were washed twice with PBS, and cultured in α-MEM (Gibco) supplemented with 10% fetal calf serum (Atlanta Biologicals), and 1% penicillin—streptomycin (Mediatech) to 80-90% confluence at 37° C., 5% CO2 and 5% O2.
Western blot analyses were conducted on the protein lysates from in vitro cultured NP cells or NP tissues from mice at specific time points after PTH (1-34) treatment and human at different ages with lumbar disc degeneration. The protein extract was centrifuged, the concentration of supernatant evaluated by DC protein assay (Bio-Rad Laboratories), and then separated by SDS-PAGE and blotted on a polyvinylidene fluoride membrane (Bio-Rad Laboratories). Following incubation in specific antibodies, we detected proteins using an enhanced chemiluminescence kit (Amersham Biosciences). […]
Background: A western blot detects proteins with antibodies after separation by electrophoresis.

Where [3] appears, read: wild-type mice relative to vehicle mice.

As for `CC[C@H](C)[C@H](NC(=O)[C@H](CCC(=O)O)NC(=O)[C@H](CO)NC(=O)[C@@H](NC(=O)[C@@H](N)CO)C(C)C)C(=O)N[C@@H](CCC(N)=O)C(=O)N[C@@H](CC(C)C)C(=O)N[C@@H](CCSC)C(=O)N[C@@H](Cc1cnc[nH]1)C(=O)N[C@@H](CC(N)=O)C(=O)N[C@@H](CC(C)C)C(=O)NCC(=O)N[C@@H](CCCCN)C(=O)N[C@@H](Cc1cnc[nH]1)C(=O)N[C@@H](CC(C)C)C(=O)N[C@@H](CC(N)=O)C(=O)N[C@@H](CO)C(=O)N[C@@H](CCSC)C(=O)N[C@@H](CCC(=O)O)C(=O)N[C@@H](CCCN=C(N)N)C(=O)N[C@H](C(=O)N[C@@H](CCC(=O)O)C(=O)N[C@@H](Cc1c[nH]c2ccccc12)C(=O)N[C@@H](CC(C)C)C(=O)N[C@@H](CCCN=C(N)N)C(=O)N[C@@H](CCCCN)C(=O)N[C@@H](CCCCN)C(=O)N[C@@H](CC(C)C)C(=O)N[C@@H](CCC(N)=O)C(=O)N[C@@H](CC(=O)O)C(=O)N[C@H](C(=O)N[C@@H](Cc1cnc[nH]1)C(=O)N[C@@H](CC(N)=O)C(=O)N[C@@H](Cc1ccccc1)C(=O)O)C(C)C)C(C)C` [PTH (1-34), teriparatide], in the test with NP cells [1] (IFT88-/- mice), the “PTH effect on level of CCN2” value is listed as “blunted”, the “PTH effect on level of aggrecan” value was “blunted” and the “PTH effect on number of pSmad2/3+ NP cells” value is listed as “blunted”. Also, in the test on NP cells [1] (setting [3]), the “level of CCN2” value is “significantly stimulated”, the level of aggrecan entry is recorded as “significantly stimulated” and the “number of pSmad2/3+ NP cells” value was “significantly stimulated”. Moreover, the “MRI signal intensity of lumbar IVDs” value with 18-month-old mice was “significantly increased”. Moreover, in the test on NP cells [2] (IFT88-/- NP cells (disruption of primary cilia)), the “levels of CREB phosphorylation by PTH” value is on record as “significantly reduced”. The “phosphorylation of CREB (Western blot)” value in the test on NP cells [2] (NP cells of wild-type mice) is recorded as “significantly stimulated”.

Values taken from patent US20210205638A1, “PARATHYROID HORMONE AND REGENERATION OF DEGENERATIVE DISCS DISEASE” (THE JOHNS HOPKINS UNIVERSITY, priority 2017, published 2021).
